Measurements reported in patent US6391303B1, “Methods and compositions for inducing oral tolerance in mammals” (Emisphere Technologies, Inc., priority 1996, dated 2002).

B1: MBP: Myelin Basic Protein, encephalitogenic antigen fed orally alone as comparison in the EAE model (protein, UniProt P02686 1-304, looked up)
Myelin basic protein: MGNHAGKRELNAEKASTNSETNRGESEKKRNLGELSRTTSEDNEVFGEADANQNNGTSSQDTAVTDSKRTADPKNAWQDAHPADPGSRPHLIRLFSRDAPGREDNTFKDRPSESDELQTIQEDSAATSESLDVMASQKRPSQRHGSKYLATASTMDHARHGFLPRHRDTGILDSIGRFFGGDRGAPKRGSGKDSHHPARTAHYGSLPQKSHGRTQDENPVVHFFKNIVTPRTPPPSQGKGRGLSLSRFSWGAEGQRPGFGYGGRASDYKSAHKGFKGVDAQGTLSKIFKLGGRDSRSGSPMARR

Columns and labels:
[1] = tested on: DTH response to SRBC; test: Delayed Type Hypersensitivity (DTH) footpad thickness test in mice fed SRBC with delivery agent; assay type: in vivo, BALB/c mice; conditions: single oral dose 2.5×10^9 SRBC + delivery agent 600 mg/Kg; versus unfed control and SRBC alone
Method: (§1) Five female BALB/c mice were fed a single dose suspension of 2.5×10^9 sheep red blood cells (SRBC)+E94 (600 mg/Kg) in Phosphate Buffered Saline (PBS), 0.1 M phosphate and 0.15 M sodium chloride, pH 7.2. Seven days after completion of oral dosing, mice were primed by footpad injection of 1×10^7 SRBC. They were bled on day 14. On day 21 the mice were tested in a Delayed Type Hypersensitivity (DTH) test through challenge by injection in the footpad not previously used in priming with 1×10^8 SRBC. Footpad thickness was measured before and 24 hours after challenge using a Vernier caliper. On day 28 they were bled again. Sera were placed into Eppendorf tubes and assayed for anti-SRBC IgM (days 14 and 28) and anti-SRBC IgG (day 28) by the direct and indirect hemagglutination assays, respectively. (See assay description below.) Prior to assaying, the samples were heat inactivated at 56/C. for 60 minutes. Assay data for Example 1 are found in FIG. 2.
Five female BALB/c mice were fed a single dose suspension of 2.5×10^9 sheep red blood cells (SRBC)+[…] (600 mg/Kg) as described in Example 7. Seven days after completion of oral dosing, mice were primed by footpad injection of 1×10^7 SRBC. On day 14. footpad thickness was measured according to the Delayed Type Hypersensitivity (DTH) method outlined in Example 1. The DTH data for Example 8 are found in FIG. 8. […]

[2] = tested on: anti-SRBC serum IgM antibodies; test: Direct hemagglutination assay for anti-SRBC serum IgM in mice fed SRBC with delivery agent; assay type: in vivo, BALB/c mice
Method: as §1, with “FIG. 2. […]” for “FIG. 2.”
a) Dilute 10μ of sera with 190μ of PBS, pH 7.2 (1/20) b) On a rigid, U-bottom microtiter plate, mark wells across the rows for dilutions of samples 40; 80; 160; . . . […]

[3] = tested on: anti-SRBC serum IgG antibodies; test: Indirect hemagglutination assay for anti-SRBC serum IgG in mice fed SRBC with delivery agent; assay type: in vivo, BALB/c mice
Method: as §1, with “bled again. […] (See assay” for “bled again. Sera were placed into Eppendorf tubes and assayed for anti-SRBC IgM (days 14 and 28) and anti-SRBC IgG (day 28) by the direct and indirect hemagglutination assays, respectively. (See assay”, “FIG. 2. […]” for “FIG. 2.”
a) In a 15 ml tube, add 11μ of goat anti-mouse IgG (Fcy specific) (2.3 mg/ml) to 5.05 ml PBS (1/460 dilution; approximate amount needed per plate) In a second tube, add 4μ of goat anti-rabbit IgG (Fc specific) to 1.8 ml of PBS approximate amount needed (per plate) […]

[4] = tested on: anti-ovalbumin IgG antibodies; test: ELISA for serum anti-ovalbumin IgG in mice fed ovalbumin with delivery agent and challenged with ovalbumin in CFA; assay type: in vivo, BALB/c mice; conditions: for serum anti-ovalbumin IgG titer at week 4: single oral dose 25 mg ovalbumin with or without 600 mg/kg delivery agent, SC challenge with ovalbumin/CFA week 1, versus unfed; for serum anti-ovalbumin IgG titer at week 12: two oral doses 1 mg ovalbumin (weeks 0 and 4) with or without 600 mg/kg delivery agent, IM challenge with ovalbumin/CFA week 9
Method: A stock solution was prepared by dissolving Ovalbumin, 10 mg/ml, in 10 mM phosphate buffer (pH 7.4). This solution was diluted with buffer to provide 1.0 mg in a volume of 0.2 ml. Ten BALB/c female mice were administered two oral doses of 1 mg ovalbumin per mouse with 600 mg/kg of E94 delivery agent at weeks 0 and 4.
Systemic challenge was achieved by intramuscular (IM) injection of 2 mg/ml ovalbumin with 50% Complete Freund's Adjuvant (CFA) at week 9. Serum samples were collected at week 12 and assayed for anti-ovalbumin total IgG isotypes as described in Example 4 utilizing ovalbumin antigen instead of HA antigen. Assay data for Example 5 are found in FIG. 5.
A stock solution of ovalbumin was prepared by dissolving Ovalbumin, 125 mg/ml, in 10 mM phosphate buffer (pH 7.4). This solution was used to provide 25 mg in a volume of 0.2 ml. Five BALB/c mice were administered a single oral dose of 25 mg ovalbumin per mouse with 600 mg/kg of E94 delivery agent.
Challenge was achieved by subcutaneous (SC) injection of 0.1 mg ovalbumin with 50% Complete Freund's Adjuvant (CFA) at week 1. Serum samples were collected at week 4 and assayed for anti-ovalbumin total IgG isotypes as described in Example 5. Assay data for Example 6 are found in FIG. 6.

[5] = tested on: anti-influenza antibodies (anti-HA); test: Hemagglutination inhibition assay of pooled sera of primed mice fed influenza antigen with delivery agent; conditions: primed s.c. 5 μg vaccine day 0, oral 60 μg influenza antigen + 750 mg/kg delivery agent day 21
Method: Sera were collected every two weeks, pooled, and assayed for hemagglutination inhibition.
Hemagglutination Inhibition Assay for Anti-HA Antibodies:
If duplicates differ by one dilution, take the average. If they differ by more than one dilution, repeat the assay.
14) This titer provides the dilution of virus suspension which contains one HA unit per 50 μl. Divide this titer by 8 to get the dilution which will contain 4 HA units per 0.025 μl for the actual Hemagglutination Inhibition (HI) assay.
RDE* treat all test sera, reference sera and negative control sera on the day before the HI assay will be done.
Use flexible plates. Mark columns for duplicate dilution series of each test and control serum sample (normal naive serum and positive reference anti-serum). The plate should have 11 columns per row for dilutions plus column 12 for RBC alone.
To all wells, except column 1, add 25 μl of PBS.
To column 1 wells, add 50 μl of the appropriate RDE-treatment serum (test, positive, or negative control) sample.
Serially 2× dilute 25 μl of the sera across to column 11, mixing 7× per dilution.
Add 25 μl of diluted virus (containing 4 HA units per 25 μl) to all serum dilution wells, columns 1-11. Add 25 μl of PBS to column 21.
Cover plate, mix briefly on shaker, and incubate at r.t. for 30 minutes.7. […]
Read patterns immediately. […]

[6] = tested on: Experimental Autoimmune Encephalomyelitis (EAE); conditions: for mean day of onset of paralysis: single oral dose 1.0 mg MBP alone or with delivery agent, day after challenge; for clinical disease (Mean Clinical Score) of EAE: single oral dose 1.0 mg MBP with delivery agent, footpad challenge 0.05 mg MBP/CFA, scale 0 to 5
Method: Two days after the (last) oral dose, all groups were challenged in the footpad with 0.05 mg of MBP emulsified with Complete Freund's Adjuvant containing Mycobacterium tuberculosis H37Ra, 4 mg/ml. Clinical signs of disease were observed starting on Day 11 after the challenge and rated on a scale of 0 (no disease) to 5 (death).

[7] = tested on: DTH response to ovalbumin; test: DTH footpad thickness assay in mice fed ovalbumin with delivery agent; assay type: in vivo, BALB/c mice; conditions: single oral dose 1.0 mg ovalbumin with or without 600 mg/kg delivery agent; SC challenge ovalbumin/CFA week 3; versus unfed
Method: A stock solution of ovalbumin was prepared by dissolving Ovalbumin, 10 mg/ml in 10 mM phosphate buffer (pH 7.4). This solution was diluted 2-fold and used to provide 1.0 mg in a volume of 0.2 ml. Five BALB/c mice were administered a single oral dose of 1.0 mg ovalbumin per mouse with 600 mg/kg of E702 delivery agent.
Challenge was achieved by subcutaneous (SC) injection of 0.1 mg ovalbumin with 50% Complete Freund's Adjuvant (CFA) at week 3. DTH assay was performed as described in Examples 1 and 8. Assay data for Example 10 are found in FIG. 9.

[8] = single oral dose SRBC + delivery agent 600 mg/Kg, versus unfed control (Comparative Example D)

Row | Molecule | DTH response (footpad thickness), Day 14 [1] | serum anti-ovalbumin IgG titer at week 4 [4] | serum anti-ovalbumin IgG titer at week 12 [4] | mean day of onset of paralysis [6] | clinical disease (Mean Clinical Score) of EAE [6] | DTH response (footpad thickness), week 5 [7] | other results
1 | O=C(O)CCCc1ccc(NS(=O)(=O)c2ccccc2)cc1 [E198, 4-[4-(N-benzenesulfonyl)]aminophenyl butyric acid] | suppressed the DTH response on Day 14 relative to unfed control (Comparative Example L) significantly more than without delivery agent | – | – | – | – | – | –
2 | O=C(N[C@@H](Cc1ccccc1)C(=O)O)c1ccccc1O [E94, N-salicyloyl phenylalanine] | – | significantly suppressed serum anti-Ova IgG titers | significantly suppressed compared to both unfed and antigen-alone fed | 15 days | suppression of clinical disease | – | anti-SRBC IgM titer, Day 14 ([2]; single oral dose 2.5×10^9 SRBC + delivery agent 600 mg/Kg, primed day 7, versus unfed control and SRBC alone): suppressed IgM on Day 14 relative to unfed control (Comparative Example D) significantly more than without delivery agent; anti-SRBC IgM titer, Day 28 [2, 8]: still lower than that for the Comparative Example D control (90% significance); anti-SRBC IgG titer, Day 28 [3, 8]: lower than the Comparative Example D control (90% significance); suppression of anti-influenza antibody production (HI titer) relative to control fed only influenza antigen [5]: more than 2 fold
3 | Ovalbumin: Ovalbumin antigen fed orally alone, without delivery agent, as comparative example | – | suppression was not statistically significant | the same as in mice given the intramuscular dose alone | – | – | not suppressed | –
4 | COc1ccccc1C(=O)Nc1ccc(CCC(=O)O)cc1 [E594, 3-[4-(N-2 methoxybenzoyl)]aminophenyl propionic acid] | suppressed the DTH response on Day 14 relative to unfed control (Comparative Example L) significantly more than without delivery agent | – | – | – | – | – | anti-SRBC IgG titer, Day 14 ([3]; single oral dose 2.5×10^9 SRBC + delivery agent 600 mg/Kg, versus unfed control and SRBC alone): suppressed IgG on Day 14 relative to unfed control (Comparative Example K) significantly more than without delivery agent
5 | COc1cccc(C(=O)Nc2ccc(CCC(=O)O)cc2)c1OC [E702, 3-[4-(N-2,3-dimethoxybenzoyl)]aminophenyl propionic acid] | – | – | – | 15 days | suppression of clinical disease | significantly suppressed response in the DTH | –
6 | B1 | – | – | – | 13 days | – | – | –
